The source of these data is US10583137B2, “Triazole DAGLα inhibitors” (THE SCRIPPS RESEARCH INSTITUTE, priority 2015, dated 2020).

One assay concerns the target DAGLα (hDAGLα-FLAG) (Homo sapiens (Human), UniProt Q9Y4D2). The assay can be described thus: competitive ABPP, membrane proteome of transfected HEK293T cells. The class given is biochemical. As to conditions: for IC50: read-out: DAGLα IC50; for inhibition at 0.4 µM: read-out: DAGLα % inh. 0.4 μM; for inhibition at 0.0032 µM: 3.2 nM, read-out: DAGLα % inh. 3.2 nM. The protocol: (§1) Compounds 19 and 20 were tested for in vitro inhibition of DAGLα and DAGLβ as measured by competitive activity-based protein profiling (ABPP) of […] using a HT-01 probe (targets DAGLα and DAGLβ) and a FP-Rh probe (targets serine hydrolases).
(§2) Briefly, membrane proteome (1 mg/ml, 20 μL) was prepared from HEK293T cells (transiently transfected with hDAGLα-FLAG or hDAGLα-S472A-FLAG, hDAGLβ-FLAG or hDAGLβ-S443A-FLAG) as described in Example 16. The proteome was incubated at room temperature with vehicle (DMSO) or compound in 0.5 μL DMSO for 30 min. The membrane proteome sample was subsequently treated for 30 min with HT-01 probe (1 μM) or FP-Rh probe (1 μM). The reactions were quenched with 10 μL 3× Laemmli sample buffer (final concentrations: 60 mM Tris-Cl pH 6.8, 2% (w/v) SDS, 10% (v/v) glycerol, 5% (v/v) (3-mercaptoethanol, 0.01% (v/v) bromophenol blue). The samples were directly loaded and resolved on SDS page gel (10% acrylamide). The gels were scanned using a ChemiDoc MP system (Cy3 settings, 605/50 filter).
(§3) The resolved proteins were transferred from the gels to a polyvinyldifluoride membrane for Western Blotting using a Trans-Blot® Turbo (BioRad). FLAG-tagged enzymes were stained using rabbit anti-FLAG as primary antibody, and goat-anti-rabbit HRP as secondary antibody. The blot was developed in the dark using a 10 mL luminal solution, 100 μL ECL enhancer and 3 μL H2O2. Chemiluminescence was visualized using a ChemiDoc XRS (BioRad).
(§4) The percentage of DAGL activity remaining in the assayed samples was determined by measuring the integrated optical intensity of the fluorescent protein bands of the Western Blot using image lab 4.1. The relative intensity was compared to the vehicle (DMSO) treated proteins, which were set to 100%. IC50 values were determined by plotting a log(inhibitor) vs. normalized response (Variable slope) dose-response curve generated using Prism software (GraphPad).

The target in the next assay is DAGLβ (hDAGLβ-FLAG) (Homo sapiens (Human), UniProt Q8NCG7). Described as above. It counts as biochemical. As to conditions: for IC50: read-out: DAGLβ IC50; for inhibition at 0.4 µM: read-out: DAGLβ % inh. 0.4 μM; for inhibition at 0.0032 µM: read-out: DAGLβ % inh. 3.2 nM. The protocol:
as §1, §2, §3, §4

DAGLβ (hDAGLβ-FLAG), sequence (Q8NCG7 whole entry): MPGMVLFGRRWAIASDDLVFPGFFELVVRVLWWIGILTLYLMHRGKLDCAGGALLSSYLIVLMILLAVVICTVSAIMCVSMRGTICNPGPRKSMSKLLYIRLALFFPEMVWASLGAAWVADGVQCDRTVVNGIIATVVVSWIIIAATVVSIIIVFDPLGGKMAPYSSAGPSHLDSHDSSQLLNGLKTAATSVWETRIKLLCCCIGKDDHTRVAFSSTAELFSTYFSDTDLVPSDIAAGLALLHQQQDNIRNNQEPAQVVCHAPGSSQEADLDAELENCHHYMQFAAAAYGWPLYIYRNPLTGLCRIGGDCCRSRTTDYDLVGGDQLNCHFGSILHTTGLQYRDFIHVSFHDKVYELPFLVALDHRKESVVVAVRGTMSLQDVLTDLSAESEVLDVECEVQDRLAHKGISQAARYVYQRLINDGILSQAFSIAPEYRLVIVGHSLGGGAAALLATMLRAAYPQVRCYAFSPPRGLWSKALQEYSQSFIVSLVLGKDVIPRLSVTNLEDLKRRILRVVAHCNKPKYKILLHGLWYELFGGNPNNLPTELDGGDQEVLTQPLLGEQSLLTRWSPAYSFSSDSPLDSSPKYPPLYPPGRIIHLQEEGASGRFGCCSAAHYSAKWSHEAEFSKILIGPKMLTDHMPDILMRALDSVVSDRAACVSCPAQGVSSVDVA
DAGLα (hDAGLα-FLAG), sequence (Q9Y4D2 whole entry): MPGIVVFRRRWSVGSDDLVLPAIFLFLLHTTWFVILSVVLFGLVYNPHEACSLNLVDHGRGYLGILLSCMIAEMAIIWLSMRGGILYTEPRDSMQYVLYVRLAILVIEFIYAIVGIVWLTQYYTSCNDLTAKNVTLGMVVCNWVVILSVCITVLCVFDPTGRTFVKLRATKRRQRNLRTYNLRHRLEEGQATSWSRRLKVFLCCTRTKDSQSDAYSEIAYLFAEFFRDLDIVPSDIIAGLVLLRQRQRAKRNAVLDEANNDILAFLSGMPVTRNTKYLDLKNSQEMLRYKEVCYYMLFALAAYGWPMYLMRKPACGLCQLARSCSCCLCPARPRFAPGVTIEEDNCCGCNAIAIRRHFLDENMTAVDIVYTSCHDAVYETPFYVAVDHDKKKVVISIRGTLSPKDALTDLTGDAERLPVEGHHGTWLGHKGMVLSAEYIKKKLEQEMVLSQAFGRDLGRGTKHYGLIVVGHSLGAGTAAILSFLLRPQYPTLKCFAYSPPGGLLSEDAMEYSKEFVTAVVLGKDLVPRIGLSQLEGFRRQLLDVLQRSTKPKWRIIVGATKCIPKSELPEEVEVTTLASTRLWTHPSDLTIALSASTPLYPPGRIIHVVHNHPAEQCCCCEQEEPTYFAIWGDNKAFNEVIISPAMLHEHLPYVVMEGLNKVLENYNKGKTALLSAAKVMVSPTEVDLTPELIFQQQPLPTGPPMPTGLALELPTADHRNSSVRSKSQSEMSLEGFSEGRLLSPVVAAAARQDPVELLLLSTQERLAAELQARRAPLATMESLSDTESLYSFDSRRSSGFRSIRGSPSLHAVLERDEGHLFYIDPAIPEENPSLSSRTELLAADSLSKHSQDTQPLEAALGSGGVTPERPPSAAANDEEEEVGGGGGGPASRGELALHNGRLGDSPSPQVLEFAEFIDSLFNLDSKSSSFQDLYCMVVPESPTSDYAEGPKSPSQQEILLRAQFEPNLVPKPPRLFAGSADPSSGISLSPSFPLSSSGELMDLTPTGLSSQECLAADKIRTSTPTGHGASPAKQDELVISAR

The term IC50 denotes the midpoint of a concentration-inhibition curve. With `CNC(=O)c1cc(OC)c(-c2ccc(-c3cn(C(=O)N4CCCCC4Cc4ccccc4)nn3)cc2)c(OC)c1` (centres unmarked) [Compound 79, 4′-(1-(2-benzylpiperidine-1-carbonyl)-1H-1,2,3-triazol-4-yl)-2,6-dimethoxy-N-methyl-[1,1′-biphenyl]-4-carboxamide], the values for the 50% inhibitory concentration (IC50) on DAGLα (hDAGLα-FLAG) and on DAGLβ (hDAGLβ-FLAG) were 400 to 2000 nM and over 10000 nM, respectively.
For the compound `COc1cc(C(=O)N(C)C)cc(OC)c1-c1ccc(-c2cn(C(=O)N3CCCCC3Cc3ccccc3)nn2)cc1` (centres unmarked) [Compound 80, 4′-(1-(2-benzylpiperidine-1-carbonyl)-1H-1,2,3-triazol-4-yl)-2,6-dimethoxy-N,N-dimethyl-[1,1′-biphenyl]-4-carboxamide], the figures for the concentration for half-maximal inhibition (IC50) on DAGLα (hDAGLα-FLAG) and at DAGLβ (hDAGLβ-FLAG) were 400 to 2000 nM and over 10000 nM, respectively.
In the case of `COc1cc(C(=O)N2CCCC2)cc(OC)c1-c1ccc(-c2cn(C(=O)N3CCCCC3Cc3ccccc3)nn2)cc1` (centres unmarked) [Compound 81, (2-benzylpiperidin-1-yl)(4-(2′,6′-dimethoxy-4′-(pyrrolidine-1-carbonyl)-[1,1′-biphenyl]-4-yl)-1H-1,2,3-triazol-1-yl)methanone], the half-inhibitory concentration (IC50) is 400 to 2000 nM on DAGLα (hDAGLα-FLAG) and over 10000 nM on DAGLβ (hDAGLβ-FLAG).
The corresponding values for `COc1ncnc(OC)c1-c1ccc(-c2cn(C(=O)N3CCCCC3Cc3ccccc3)nn2)cc1` (centres unmarked) [Compound 82, (2-benzylpiperidin-1-yl)(4-(4-(4,6-dimethoxypyrimidin-5-yl)phenyl)-1H-1,2,3-triazol-1-yl)methanone] are at most 400 nM and at most 400 nM.
For `COc1cnnc(OC)c1-c1ccc(-c2cn(C(=O)N3CCCCC3Cc3ccccc3)nn2)cc1` (centres unmarked) [Compound 83, (2-benzylpiperidin-1-yl)(4-(4-(3,5-dimethoxypyridazin-4-yl)phenyl)-1H-1,2,3-triazol-1-yl)methanone], in that order: at most 400 nM and 2000 to 10000 nM.
The corresponding values for `COc1cc(OC)c(-c2cn(C(=O)N3CCCCC3Cc3ccccc3)nn2)c(OC)c1` (centres unmarked) [Compound 84, (2-benzylpiperidin-1-yl)(4-(2,4,6-trimethoxyphenyl)-1H-1,2,3-triazol-1-yl)methanone] are over 10000 nM and 2000 to 10000 nM.
Consider `COc1cc(OC)c(-c2cnn(C(=O)N3CCCCC3Cc3ccccc3)n2)c(OC)c1` (centres unmarked) [Compound 85, (2-benzylpiperidin-1-yl)(4-(2,4,6-trimethoxyphenyl)-1H-1,2,3-triazol-2-yl)methanone], for which the values for the IC50 at DAGLα (hDAGLα-FLAG) and on DAGLβ (hDAGLβ-FLAG) were over 10000 nM and 2000 to 10000 nM, respectively.
Turning to `COc1ccc(-c2cn(C(=O)N3CCCCC3Cc3ccccc3)nn2)cc1` (centres unmarked) [Compound 87, (2-benzylpiperidin-1-yl)(4-(4-methoxyphenyl)-1H-1,2,3-triazol-1-yl)methanone], the IC50 on DAGLα (hDAGLα-FLAG) and at DAGLβ (hDAGLβ-FLAG) was at most 400 nM each time.
For the compound `N#Cc1ccc(-c2cn(C(=O)N3CCCCC3Cc3ccccc3)nn2)cc1` (centres unmarked) [Compound 88, 4-(1-(2-benzylpiperidine-1-carbonyl)-1H-1,2,3-triazol-4-yl)benzonitrile], the IC50 on DAGLα (hDAGLα-FLAG) and at DAGLβ (hDAGLβ-FLAG) was at most 400 nM each time.
For the compound `O=C(N1CCCCC1Cc1ccccc1)n1cc(-c2ccc([N+](=O)[O-])cc2)nn1` (centres unmarked) [Compound 89, (2-benzylpiperidin-1-yl)(4-(4-nitrophenyl)-1H-1,2,3-triazol-1-yl)methanone], the IC50 on DAGLα (hDAGLα-FLAG) and on DAGLβ (hDAGLβ-FLAG) was at most 400 nM each time.
With `O=C(N1CCCCC1Cc1ccccc1)n1cc(-c2ccc(Br)nc2)nn1` (centres unmarked) [Compound 90, (2-benzylpiperidin-1-yl)(4-(6-bromopyridin-3-yl)-1H-1,2,3-triazol-1-yl)methanone], the IC50 at DAGLα (hDAGLα-FLAG) and on DAGLβ (hDAGLβ-FLAG) was at most 400 nM in each case.
On to `CS(=O)(=O)OCc1ccc(-c2cn(C(=O)N3CCCCC3Cc3ccccc3)nn2)cc1` (centres unmarked) [Compound 91, 4-(1-(2-benzylpiperidine-1-carbonyl)-1H-1,2,3-triazol-4-yl)benzyl methanesulfonate], for which the IC50 at DAGLα (hDAGLα-FLAG) was at most 400 nM; on DAGLβ (hDAGLβ-FLAG), 2000 to 10000 nM.
`CN(C)Cc1ccc(-c2cn(C(=O)N3CCCCC3Cc3ccccc3)nn2)cc1` (centres unmarked) [Compound 92, (2-benzylpiperidin-1-yl)(4-(4-((dimethylamino)methyl)phenyl)-1H-1,2,3-triazol-1-yl)methanone]: the IC50 at DAGLα (hDAGLα-FLAG) and at DAGLβ (hDAGLβ-FLAG) was 2000 to 10000 nM throughout.
For the compound `O=C(N1CCCCC1Cc1ccccc1)n1cc(-c2ccc(CN3CCCC3)cc2)nn1` (centres unmarked) [Compound 93, (2-benzylpiperidin-1-yl)(4-(4-(pyrrolidin-1-ylmethyl)phenyl)-1H-1,2,3-triazol-1-yl)methanone], the values for the IC50 at DAGLα (hDAGLα-FLAG) and at DAGLβ (hDAGLβ-FLAG) were 2000 to 10000 nM and over 10000 nM, respectively.
Turning to `O=C(N1CCCCC1Cc1ccccc1)n1cc(-c2ccc(CN3CCOCC3)cc2)nn1` (centres unmarked) [Compound 94, (2-benzylpiperidin-1-yl)(4-(4-(morpholinomethyl)phenyl)-1H-1,2,3-triazol-1-yl)methanone], the half-inhibitory concentration (IC50) is at most 400 nM on DAGLα (hDAGLα-FLAG) and 400 to 2000 nM on DAGLβ (hDAGLβ-FLAG).
`COC(=O)N1CCN(C(=O)n2cc(-c3ccc(OC(F)(F)F)cc3)nn2)C(Cc2ccccc2)C1` (centres unmarked) [Compound 95, methyl 3-benzyl-4-(4-(4-(trifluoromethoxy)phenyl)-1H-1,2,3-triazole-1-carbonyl)piperazine-1-carboxylate]: the results for the inhibition at 0.4 µM on DAGLα (hDAGLα-FLAG) and at DAGLβ (hDAGLβ-FLAG) were at least 75% and 25 to 50%, respectively.
As to `CC(C)OC(=O)N1CCN(C(=O)n2cc(-c3ccc(OC(F)(F)F)cc3)nn2)C(Cc2ccccc2)C1` (centres unmarked) [Compound 96, isopropyl 3-benzyl-4-(4-(4-(trifluoromethoxy)phenyl)-1H-1,2,3-triazole-1-carbonyl)piperazine-1-carboxylate], the values for the inhibition at 0.4 µM on DAGLα (hDAGLα-FLAG) and at DAGLβ (hDAGLβ-FLAG) were at least 75% and 50 to 75%, respectively.
In the case of `CC(C)OC(=O)N1CCN(C(=O)n2ncc(-c3ccc(OC(F)(F)F)cc3)n2)C(Cc2ccccc2)C1` (centres unmarked) [Compound 97, isopropyl 3-benzyl-4-(4-(4-(trifluoromethoxy)phenyl)-2H-1,2,3-triazole-2-carbonyl)piperazine-1-carboxylate], the inhibition at 0.4 µM on DAGLα (hDAGLα-FLAG) fell in the range of 25 to 50%; at DAGLβ (hDAGLβ-FLAG) it was 0 to 25%.
For `COC(=O)N1CCN(C(=O)n2ncc(-c3ccc(OC(F)(F)F)cc3)n2)C(Cc2ccccc2)C1` (centres unmarked) [Compound 98, methyl 3-benzyl-4-(4-(4-(trifluoromethoxy)phenyl)-2H-1,2,3-triazole-2-carbonyl)piperazine-1-carboxylate], in that order: 0 to 25% and 0 to 25%.
For `CC(C)(C)OC(=O)N1CCN(C(=O)n2ncc(-c3ccc(OC(F)(F)F)cc3)n2)C(Cc2ccccc2)C1` (centres unmarked) [Compound 99, tert-butyl 3-benzyl-4-(4-(4-(trifluoromethoxy)phenyl)-2H-1,2,3-triazole-2-carbonyl)piperazine-1-carboxylate], in that order: 0 to 25% and 0 to 25%.
The corresponding values for `CC(C)(C)OC(=O)N1CCN(C(=O)n2cc(-c3ccc(OC(F)(F)F)cc3)nn2)[C@H](Cc2ccccc2)C1` [Compound 100, tert-butyl (R)-3-benzyl-4-(4-(4-(trifluoromethoxy)phenyl)-1H-1,2,3-triazole-1-carbonyl)piperazine-1-carboxylate] are at least 75% and at least 75%.
Consider `CC(C)(C)OC(=O)N1CCN(C(=O)n2cc(-c3ccc(OC(F)(F)F)cc3)nn2)[C@@H](Cc2ccccc2)C1` [Compound 102, tert-butyl (S)-3-benzyl-4-(4-(4-(trifluoromethoxy)phenyl)-1H-1,2,3-triazole-1-carbonyl)piperazine-1-carboxylate], for which the inhibition at 0.4 µM on DAGLα (hDAGLα-FLAG) and on DAGLβ (hDAGLβ-FLAG) was at least 75% in each case.
Take `O=C(N1CCCC[C@@H]1Cc1ccccc1)n1ncc(-c2ccc(OC(F)(F)F)cc2)n1` [Compound 104, (R)-(2-benzylpiperidin-1-yl)(4-(4-(trifluoromethoxy)phenyl)-2H-1,2,3-triazol-2-yl)methanone]: the inhibition at 0.0032 µM at DAGLα (hDAGLα-FLAG) and on DAGLβ (hDAGLβ-FLAG) was 0 to 25% throughout.
Turning to `O=C(N1CCCC[C@H]1Cc1ccccc1)n1ncc(-c2ccc(OC(F)(F)F)cc2)n1` [Compound 105, (S)-(2-benzylpiperidin-1-yl)(4-(4-(trifluoromethoxy)phenyl)-2H-1,2,3-triazol-2-yl)methanone], the inhibition at 0.0032 µM on DAGLα (hDAGLα-FLAG) and at DAGLβ (hDAGLβ-FLAG) was 0 to 25% throughout.
Take `O=C(N1CCC=C[C@@H]1COCc1ccccc1)n1cc(-c2ccc(OC(F)(F)F)cc2)nn1` [Compound 106, (R)-(6-((benzyloxy)methyl)-3,6-dihydropyridin-1(2H)-yl)(4-(4-(trifluoromethoxy)phenyl)-1H-1,2,3-triazol-1-yl)methanone]: the inhibition at 0.0032 µM on DAGLα (hDAGLα-FLAG) and on DAGLβ (hDAGLβ-FLAG) was 0 to 25% in each case.
